# What was measured:
# [1] = system: cytokines at spinal cord injury site; experiment: Rat cytokine antibody array analysis of spinal cord tissue; type: in vivo; conditions: tail vein injection
# Description: For the present experiment, male white mice (Sprague-Dawley 240-250 g, 7 weeks, 10 mice) were under general anesthetics by an intraperitoneal injection of Ketamin (80 mg/kg, Yuhan Corporation) and Rompun (7.4 mg/kg, Bayer Korea Corporation). Laminectomy was performed at spine T9-10 level to expose a spinal cord keeping intact dura. And then, rat was put on Spinal cord dropping device (NYU); spine processes at T8 and T11 sites were fixed by using a clamp, respectively; then, a rod (diameter 2 mm, weight 10 g) was dropped from 25 mm height vertical to dorsal part of spinal cord followed by suturing injury site muscle and skin. The rat of Sham-operated control group was performed only laminectomy at same area without damaging spinal cord injury (marked by ‘sham” in figures; hereinafter, the same as above).
# Substance P (marked by ‘SP’ in figures; hereinafter, the same as above) dissolved in saline of 5 nmol/kg concentration was injected through tail vein at immediately, 24 hours, and 48 hours after a spinal cord injury for experimental groups. At sham control group, same volume of saline (marked by ‘vehicle’ in figures; hereinafter, the same as above) without Substance P was injected at same time points. Operation were performed on an electric heating pad of 37° C., and then rat were transferred to cage after awake from the anesthetic. • (2) Preparation of Tissue
# A rat cytokine antibody array analysis was performed in order to investigate an effect of Substance P in expressing cytokine.
# At immediately, 1 d, and 2d, Substance P or saline (the same volume without Substance P) was injected through tail vein using the same method as (1) of Example 1. After operating, the experimental group (4 rats/group) and the control (4 rats/group) were sacrificed at 1 d and 5d, respectively. The spinal cord tissue (1 cm) obtained from an animal was homogenized with a dissolution buffer solution (10% glycerol, 20 mM Tris [pH 8.0], 137 mM NaCl, 1% Nonidet P-40, 0.5 mM EDTA, 10 mM Na2P2O7, 10 mM NaF, 1 μg/ml aprotinin, 10 μg/ml leupeptin, 1 mM vanadate and 1 mM PMSF). A protein amount of supernatant was determined by BCA assay (Pierce). Subsequently, a cytokine assay was performed according to instructions of Ray Biotech Morcross GA protocol. A membrane was blocked with a blocking buffer solution, then 150 μg of a protein sample was added, and reacted for 2 hours at a room temperature. The membrane was washed and 1 ml of primary antibody conjugated with a biotin was added, and placed at 4° C. overnight. Next day, the membrane was washed, and reacted with 2 ml of streptoavidin conjugated with horseradish peroxidase for 30 minutes at a room temperature. The membrane was developed using enhanced chemiluminescence-type solution, and the film was exposed to Radiography. Using USA NIH Image and Image J software (Hong et al., 2009), density quantification of array was performed.
# spinal cord injury = experiment: Ethologic change test, BBB locomotor rating scale after spinal cord injury; type: in vivo, rat
# Description: For the present experiment, male white mice (Sprague-Dawley 240-250 g, 7 weeks, 10 mice) were under general anesthetics by an intraperitoneal injection of Ketamin (80 mg/kg, Yuhan Corporation) and Rompun (7.4 mg/kg, Bayer Korea Corporation). Laminectomy was performed at spine T9-10 level to expose a spinal cord keeping intact dura. And then, rat was put on Spinal cord dropping device (NYU); spine processes at T8 and T11 sites were fixed by using a clamp, respectively; then, a rod (diameter 2 mm, weight 10 g) was dropped from 25 mm height vertical to dorsal part of spinal cord followed by suturing injury site muscle and skin. The rat of Sham-operated control group was performed only laminectomy at same area without damaging spinal cord injury (marked by ‘sham” in figures; hereinafter, the same as above). Substance P (marked by ‘SP’ in figures; hereinafter, the same as above) dissolved in saline of 5 nmol/kg concentration was injected through tail vein at immediately, 24 hours, and 48 hours after a spinal cord injury for experimental groups. At sham control group, same volume of saline (marked by ‘vehicle’ in figures; hereinafter, the same as above) without Substance P was injected at same time points. Operation were performed on an electric heating pad of 37° C., and then rat were transferred to cage after awake from the anesthetic. • (2) Preparation of Tissue An ethologic change test was performed as follows: an experimental animal was put to a large basin having soft and non-smooth bottom (Width 90 cm×Length 130 cm×Height 30 cm); then body's balance states and moving states of hind-leg's coxalgic pelvis, knee joint, and ankle joint were observed when freely walking; then it was converted into a score based on Basso-Bresnahan-Beattie (BBB) locomotor rating scale (Basso et al., 1995); and then four researchers performed a blind technique. Substance P or saline was injected to a tail vein of rat, respectively at immediately, 1 d, 2 d after a spinal cord injury, using the same method as (1) of Example 1. And then, for the experimental group (10 rats/group) and the control (9 rats/group), an ethologic change due to a spinal cord injury was observed and estimated for different periods, such as after injuring, 1 week, 2 weeks, 3 weeks, 4 weeks, 5 weeks, […], and 6 weeks. A mean value of scores (BBB scores) observed by four researchers was taken, and the results thereof were statistically analyzed. The statistical analysis was performed in a method of two-way ANOVA with post hoc Tukey test.
# [2] = five days after spinal cord injury, vs control
# [3] = one day after spinal cord injury
substance,measurement,setting,value
Substance P,amount of IL-10,[1]; 5 d after spinal cord injury,higher than the control
same,expression of IFN-γ,[1]; [2],slightly decreased
same,expression of IL-1α,[1]; [2],slightly decreased
same,amount of IL-6,[1]; [3],meaningfully increased
same,increase of amount of IL-4,[1]; [3],two times
same,increase of amount of IL-10,[1]; [3],ten times
same,motor skill,"spinal cord injury; from 14 days, vs control",meaningful improved
same,motor skill,"spinal cord injury; from about 5 weeks, vs control",meaningfully recovered and improved
same,spinal cord nerve function,"spinal cord injury; from about one week after administrating, vs control",beginning to recover
same,BBB score,"spinal cord injury; tail vein injection at immediately, 1 d, 2 d after injury, at 6 weeks, P<0.05 vs control",11.5±0.5

# Reference: patent publication US9078851B2, “Composition for preventing or treating a spinal cord injury” (UNIVERSITY-INDUSTRY COOPERATION GROUP OF KYUNG HEE, priority 2009, dated 2015)
